In publication PMC9486541, “Design, synthesis and cytotoxic evaluation of novel betulonic acid-diazine derivatives as potential antitumor agents” (Frontiers in Chemistry, 2022):
Where two headings read alike, the source gives them in different places.

How the values were obtained:
MCF-7 = test: MTT assay, MCF-7 cells; format: cell-based, human; details: read-out: Half maximal inhibitory concentration (IC50) values, MCF-7
Text: (§1) The human hepatocellular carcinoma cell line (HepG2), human hepatocellular carcinoma cell line (Bel-7402), human cervical cancer cell line (Hela), human breast adenocarcinoma cell line (MCF-7) and Madin-Darby canine kidney cell line (MDCK) were obtained from the Chinese Academy of Medical Sciences and Peking Union Medical College. Cultures were maintained as monolayer in RPMI-1640/DMEM supplemented with 10% (v/v) fetal bovine serum (FBS) and 1% (v/v) penicillin/streptomycin (Thermo Technologies, New York, NY, United States) under a humidified atmosphere containing 5% CO2 at 37°C. The BoA derivatives and positive control drugs (BoA and DDP) under study were dissolved in DMSO (Sigma, St. Louis, MO, United States) and added at required concentrations to the cell culture. Cells incubated without the preparations served as the control.
(§2) The antitumor activity was assessed by MTT assay, as previously reported ([Fang et al., 2018]). Each tested compound and positive control drugs were dissolved in DMSO and diluted with the medium to the test concentrations, and the final concentration of DMSO in the culture medium was controlled at less than 0.5% (v/v). Briefly, cells were cultured at 37°C and dispersed in replicates in 96-well plates with HepG2, Bel-7402, HeLa, MCF-7 and MDCK for 24 h. Fresh medium along with compounds (BoAA-BoAE, BoA2A-BoA2G, BoA3A-BoA3G, BoA4A-BoA4G) at different concentrations was then added to individual wells and incubated for 72 h, with BoA and DDP as the positive control. Experiments on FXR expression were separated into three groups: Control (PBS), BoA2C (8 μM), and BoA2C (8 μM) + DY268 (10 μM) ([Giordano et al., 2016]), with three repeating wells in each. In separate wells, BoA2C and DY268 were introduced and cultured for 72 h. After 72 h, the cell was incubated with MTT solution (0.5 mg/ml) for an additional 4 h at 37°C. The produced formazan crystals were solubilized with DMSO, and the optical density of solution was measured at 570 nm using a plate reader (BIORAD 550 spectrophotometer, Bio-rad Life Science Development Ltd., Beijing, China). Wells without drugs were used to be blanks. The IC50 values were defined as the concentration of compounds that produced a 50% proliferation inhibition of surviving cells and calculated using the Graph Pad Prism 5. The inhibitory rate was calculated in the following Equation 1, where OD is the optical density: % inhibition=[1−(OD Sample group−OD Blank group)/(OD Control group−OD Blank group)]×100% (1)

Bel-7402 = test: MTT assay, Bel-7402 cells; format: cell-based, human; details: read-out: Half maximal inhibitory concentration (IC50) values, Bel-7402
Text: as §1, §2

HepG2 = test: MTT assay, HepG2 cells; format: cell-based, human; details: read-out: Half maximal inhibitory concentration (IC50) values, HepG2
Text: as §1, §2

MDCK = test: MTT assay, MDCK normal cell line; format: cell-based, canine; details: 72 h incubation, normal cell line, read-out: Half maximal inhibitory concentration (IC50) values, MDCK
Text: as §1, §2

Hela = test: MTT assay, Hela cells; format: cell-based, human; details: 72 h incubation, read-out: Half maximal inhibitory concentration (IC50) values, Hela
Text: as §1, §2

[1] = Homo sapiens, MCF7, 72 h incubation
[2] = Homo sapiens, Bel-7402, 72 h incubation
[3] = Homo sapiens, HepG2, 72 h incubation

C=C(C)[C@@H]1CC[C@]2(C(=O)OCCOC(=O)c3cnccn3)CC[C@]3(C)[C@H](CC[C@@H]4[C@@]5(C)CCC(=O)C(C)(C)[C@@H]5CC[C@]43C)[C@@H]12 [BoA2A, (Pyrazin-2-acyloxy)-ethyl-3-oxolup-20(29)-en-28-oate]
IC50 (MCF-7; [1]): 9.86 ± 0.36 µM
melting point: 85 to 87 °C
IC50 (Bel-7402; [2]): 8.76 ± 0.84 µM
IC50 (HepG2; [3]): 13.7 ± 0.25 µM
IC50 (MDCK; Canis lupus familiaris, MDCK): > 30 µM
IC50 (Hela; Homo sapiens, HeLa): 25 ± 0.97 µM

C=C(C)[C@@H]1CC[C@]2(C(=O)OCCOC(=O)c3nccnc3C)CC[C@]3(C)[C@H](CC[C@@H]4[C@@]5(C)CCC(=O)C(C)(C)[C@@H]5CC[C@]43C)[C@@H]12 [BoA2B, (3-Methylpyrazin-2-acyloxy)-ethyl-3-oxolup-20(29)-en-28-oate]
IC50 (MCF-7; [1]): > 30 µM
melting point: 60 to 62 °C
IC50 (Bel-7402; [2]): 10.1 ± 1.4 µM
IC50 (HepG2; [3]): 13.4 ± 1.82 µM
IC50 (MDCK; Canis lupus familiaris, MDCK): > 30 µM
IC50 (Hela; Homo sapiens, HeLa): 15.5 ± 0.81 µM

C=C(C)[C@@H]1CC[C@]2(C(=O)OCCOC(=O)c3cncc(C)n3)CC[C@]3(C)[C@H](CC[C@@H]4[C@@]5(C)CCC(=O)C(C)(C)[C@@H]5CC[C@]43C)[C@@H]12 [BoA2D, (6-Methylpyrazin-2-acyloxy)-ethyl-3-oxolup-20(29)-en-28-oate]
IC50 (MCF-7; [1]): 8.32 ± 1.28 µM
melting point: 139 to 141 °C
IC50 (Bel-7402; [2]): 8.22 ± 0.43 µM
IC50 (HepG2; [3]): 7.32 ± 2.88 µM
IC50 (MDCK; Canis lupus familiaris, MDCK): > 30 µM
IC50 (Hela; Homo sapiens, HeLa): 14.9 ± 1.84 µM

C=C(C)[C@@H]1CC[C@]2(C(=O)OCCOC(=O)c3ccncn3)CC[C@]3(C)[C@H](CC[C@@H]4[C@@]5(C)CCC(=O)C(C)(C)[C@@H]5CC[C@]43C)[C@@H]12 [BoA2F]
IC50 (MCF-7; [1]): 29.7 ± 0.37 µM
melting point: 72 to 74 °C
IC50 (Bel-7402; [2]): > 30 µM
IC50 (HepG2; [3]): > 30 µM
IC50 (MDCK; Canis lupus familiaris, MDCK): 12.5 ± 1.22 µM
IC50 (Hela; Homo sapiens, HeLa): 15.2 ± 1.07 µM

C=C(C)[C@@H]1CC[C@]2(C(=O)OCCCCOC(=O)c3cnc(C)cn3)CC[C@]3(C)[C@H](CC[C@@H]4[C@@]5(C)CCC(=O)C(C)(C)[C@@H]5CC[C@]43C)[C@@H]12 [BoA4C, (5-Methylpyrazin-2-acyloxy)-butyl-3-oxolup-20(29)-en-28-oate]
IC50 (MCF-7; [1]): 9.88 ± 1.49 µM
IC50 (Bel-7402; [2]): 5.53 ± 0.46 µM
IC50 (HepG2; [3]): 22.2 ± 1.76 µM
IC50 (MDCK; Canis lupus familiaris, MDCK): > 30 µM
IC50 (Hela; Homo sapiens, HeLa): 17.9 ± 0.45 µM

C=C(C)[C@@H]1CC[C@]2(C(=O)OCCCCOC(=O)c3cncc(C)n3)CC[C@]3(C)[C@H](CC[C@@H]4[C@@]5(C)CCC(=O)C(C)(C)[C@@H]5CC[C@]43C)[C@@H]12 [BoA4D, (6-Methylpyrazin-2-acyloxy)-butyl-3-oxolup-20(29)-en-28-oate]
IC50 (MCF-7; [1]): > 30 µM
IC50 (Bel-7402; [2]): 16.3 ± 0.9 µM
IC50 (HepG2; [3]): > 30 µM
IC50 (MDCK; Canis lupus familiaris, MDCK): > 30 µM
IC50 (Hela; Homo sapiens, HeLa): 15.7 ± 2.15 µM

C=C(C)[C@@H]1CC[C@]2(C(=O)OCCCCOC(=O)c3ccncn3)CC[C@]3(C)[C@H](CC[C@@H]4[C@@]5(C)CCC(=O)C(C)(C)[C@@H]5CC[C@]43C)[C@@H]12 [BoA4F]
IC50 (MCF-7; [1]): 24.5 ± 5.17 µM
IC50 (Bel-7402; [2]): > 30 µM
IC50 (HepG2; [3]): 30.2 ± 1.51 µM
IC50 (MDCK; Canis lupus familiaris, MDCK): 27.22 ± 0.25 µM
IC50 (Hela; Homo sapiens, HeLa): 25.9 ± 0.57 µM

C=C(C)[C@@H]1CC[C@]2(C(=O)OCCCCOC(=O)c3ccnnc3)CC[C@]3(C)[C@H](CC[C@@H]4[C@@]5(C)CCC(=O)C(C)(C)[C@@H]5CC[C@]43C)[C@@H]12 [BoA4G, (Pyridazin-2-acyloxy)-butyl-3-oxolup-20(29)-en-28-oate]
IC50 (MCF-7; [1]): 12.8 ± 0.15 µM
IC50 (Bel-7402; [2]): 19.4 ± 1.2 µM
IC50 (HepG2; [3]): 29.27 ± 0.22 µM
IC50 (MDCK; Canis lupus familiaris, MDCK): 16.9 ± 1.03 µM
IC50 (Hela; Homo sapiens, HeLa): 7.46 ± 1.99 µM

C=C(C)[C@@H]1CC[C@]2(C(=O)O)CC[C@]3(C)[C@H](CC[C@@H]4[C@@]5(C)CCC(=O)C(C)(C)[C@@H]5CC[C@]43C)[C@@H]12 [BoA, betulonic acid]
IC50 (MCF-7; [1]): > 30 µM
IC50 (Bel-7402; [2]): > 30 µM
IC50 (HepG2; [3]): > 30 µM
IC50 (MDCK; Canis lupus familiaris, MDCK): > 30 µM
IC50 (Hela; Homo sapiens, HeLa): 27 ± 1.06 µM

C=C(C)[C@@H]1CC[C@]2(C(=O)OCc3cnccn3)CC[C@]3(C)[C@H](CC[C@@H]4[C@@]5(C)CCC(=O)C(C)(C)[C@@H]5CC[C@]43C)[C@@H]12 [BoAA, Pyrazin-2-ylmethyl-3-oxolup-20(29)-en-28-oate]
IC50 (MCF-7; [1]): 15.7 ± 0.55 µM
IC50 (Bel-7402; [2]): 8.16 ± 2.08 µM
IC50 (HepG2; [3]): 13.5 ± 1.8 µM
IC50 (MDCK; Canis lupus familiaris, MDCK): > 30 µM
IC50 (Hela; Homo sapiens, HeLa): 18.3 ± 1.63 µM

N.N.[Cl][Pt][Cl] [DDP, cisplatin, reference compound]
IC50 (MCF-7; 72 h incubation): 6.98 ± 0.32 µM
IC50 (Bel-7402; 72 h incubation): 8.86 ± 1.32 µM
IC50 (HepG2; 72 h incubation): 5.23 ± 1.03 µM
IC50 (MDCK): 13.7 ± 1.45 µM
IC50 (Hela): 9.84 ± 2.54 µM
